Experimental data: patent publication US6685617B1, “Inhibitors of α4β1 mediated cell adhesion” (Pharmacia & Upjohn Company, priority 1998, dated 2004)

target: T1, α4β1 integrin (Jurkat T-cell adhesion to IL-1 stimulated endothelial cell monolayers) (Homo sapiens, UniProt P05556+P13612); assay: Jurkat-endothelial cell adhesion assay (Jurkat EC); type: cell-based; conditions: Jurkat cells on IL-1 stimulated human umbilical vein endothelial cells; read-out: JK/EC (Jurkat EC Assay IC50 value range)
T1 construct: a T-cell line, Jurkat, known to express the α4β1 integrin; host or cells: Jurkat T-cell line
Description: Jurkat-endothelial Cell Adhesion Assay:
The following assay established the activity of the present compounds in inhibiting β1-mediated cell adhesion in a representative in vitro system. This assay measures the adhesive interactions of a T-cell line, Jurkat, known to express the α4β1 integrin, to endothelial monolayers in the presence of test compounds. The test compounds were added in increasing concentrations to T-cells and then the T-cell compound mixture was added to IL-1 stimulated endothelial cell monolayers. The plates were incubated, washed and the percentage of attached cells was quantitated.
Human umbilical vein endothelial cells were purchased from Clonetics (San Diego, Calif.) at passage number 2. The cells were grown on 0.5% porcine skin gelatin pre-coated flasks (Sigma, St. Louis Mo.) in EGM-UV media (Clonetics, San Diego, Calif.) supplemented with 10% fetal bovine serum. Cells are refed every 2-3 days reaching confluence by day 4 to 6. […] The endothelial cells are not used following passage 6.
The T-cell line Jurkat was obtained from American Type Tissue Culture Collection (Rockville, Md.) and the cells were cultured in RPMI containing 10% fetal calf serum. The cells were washed twice in Hank's Balanced Salt Solution (HBSS) and resuspended in Dulbecco's Minimal Eagle's Media (DMEM) containing 2.5 mg/ml Human Serum Albumin (HSA). Jurkat cells (1×10^6 cells/ml) were stained with 10 ng/ml BCECF-AM (Molecular Probes, Eugene, Oreg.)) in HBSS without phenol red. The cells were loaded with BCECF for 60 minutes in the dark at 370C, washed 2 times, and resuspended in DMEM-HSA solution.
Confluent endothelial monolayers, grown in 96-well tissue culture plates, were stimulated for 4 hr. at 37° C. with 0.1 ng/ml (˜50 U/ml) recombinant IL-1 (Amgen, Thousand Oaks, Calif.). Following this incubation, the monolayers were washed twice with HBSS and 0.1 ml of DMEM−HSA solution was added. Jurkat cells (5×10^5 cells) were combined with the appropriate concentration of the test compound and 0.1 ml of the Jurkat cell-compound mixture was added to the endothelial cell monolayers. Generally, 100, 20, 5 and 1.25 μM compound concentrations were tested. […] The plates were placed on ice for 5 minutes to allow for Jurkat cell settling and the plates were incubated at 37° C. for 20 minutes. Following this incubation, the monolayers were washed twice with PBS containing 1 mM calcium chloride and 1 mM magnesium chloride and the plates were read using a Millipore Cytofluor 2300 (Marlboro, Mass.). Fluorescence in each well was measured as Arbitrary Fluorescence Units and percent adhesion in the absence of compound was adjusted to 100% and the % adhesion in the presence of compound was calculated. Monolayers were also fixed in 3% paraformaldehyde and evaluated microscopically to verify the adhesion. This procedure is a modification of a previously published method (Cardarelli et al., J. Biol. Chem. 269:18668-18673 (1994)).

T1 sequence (P13612 34-1032): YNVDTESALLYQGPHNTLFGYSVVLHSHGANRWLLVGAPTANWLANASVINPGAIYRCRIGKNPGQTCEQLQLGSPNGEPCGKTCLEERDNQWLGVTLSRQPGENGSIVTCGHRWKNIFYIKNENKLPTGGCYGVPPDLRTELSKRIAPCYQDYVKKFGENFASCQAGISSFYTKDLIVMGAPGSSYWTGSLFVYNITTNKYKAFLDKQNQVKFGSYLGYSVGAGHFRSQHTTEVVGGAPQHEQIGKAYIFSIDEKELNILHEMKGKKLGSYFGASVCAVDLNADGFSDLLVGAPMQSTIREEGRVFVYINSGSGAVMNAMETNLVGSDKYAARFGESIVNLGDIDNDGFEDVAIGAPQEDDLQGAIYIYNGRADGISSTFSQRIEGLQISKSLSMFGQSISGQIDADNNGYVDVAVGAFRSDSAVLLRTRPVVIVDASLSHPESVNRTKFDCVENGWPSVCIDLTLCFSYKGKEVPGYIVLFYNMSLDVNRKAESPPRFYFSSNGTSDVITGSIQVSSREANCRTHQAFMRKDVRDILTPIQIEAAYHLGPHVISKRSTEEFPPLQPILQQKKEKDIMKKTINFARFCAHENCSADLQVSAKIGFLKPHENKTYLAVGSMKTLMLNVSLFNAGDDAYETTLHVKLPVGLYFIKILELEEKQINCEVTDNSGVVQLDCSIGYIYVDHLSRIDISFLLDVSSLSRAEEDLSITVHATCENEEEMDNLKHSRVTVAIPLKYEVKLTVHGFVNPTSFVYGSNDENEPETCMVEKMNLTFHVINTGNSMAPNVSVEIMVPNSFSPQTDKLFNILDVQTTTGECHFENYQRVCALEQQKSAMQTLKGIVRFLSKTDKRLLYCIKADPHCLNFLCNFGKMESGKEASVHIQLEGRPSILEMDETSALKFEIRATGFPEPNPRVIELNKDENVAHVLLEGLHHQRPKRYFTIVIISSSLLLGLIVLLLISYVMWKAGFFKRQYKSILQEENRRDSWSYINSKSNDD
T1 sequence (P05556 21-798): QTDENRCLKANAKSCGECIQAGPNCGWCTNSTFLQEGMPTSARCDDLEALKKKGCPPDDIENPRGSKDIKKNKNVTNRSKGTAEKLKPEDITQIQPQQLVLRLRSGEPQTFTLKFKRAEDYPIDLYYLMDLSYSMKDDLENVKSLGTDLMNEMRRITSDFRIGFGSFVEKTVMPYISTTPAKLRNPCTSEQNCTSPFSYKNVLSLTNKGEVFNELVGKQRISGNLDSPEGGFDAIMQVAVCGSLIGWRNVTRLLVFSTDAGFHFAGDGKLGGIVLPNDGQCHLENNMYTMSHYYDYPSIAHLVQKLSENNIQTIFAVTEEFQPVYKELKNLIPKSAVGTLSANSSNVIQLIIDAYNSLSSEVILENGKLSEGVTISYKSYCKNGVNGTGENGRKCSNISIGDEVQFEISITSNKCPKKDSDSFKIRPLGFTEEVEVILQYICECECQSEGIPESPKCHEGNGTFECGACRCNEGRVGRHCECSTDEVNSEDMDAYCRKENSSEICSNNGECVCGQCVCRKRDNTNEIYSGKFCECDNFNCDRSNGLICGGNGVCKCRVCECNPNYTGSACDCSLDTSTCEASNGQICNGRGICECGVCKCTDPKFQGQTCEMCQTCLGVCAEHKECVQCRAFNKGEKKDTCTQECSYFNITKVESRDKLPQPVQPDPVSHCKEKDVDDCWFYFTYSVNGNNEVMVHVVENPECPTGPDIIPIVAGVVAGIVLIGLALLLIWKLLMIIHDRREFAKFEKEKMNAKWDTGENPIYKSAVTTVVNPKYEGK

Compound	IC50
O=C(O)c1ccc(NC(=O)N2CCC(C(=O)N[C@@H](Cc3ccc(NC(=O)c4c(Cl)cccc4Cl)cc3)C(=O)O)CC2)cc1 [Example 175, N-[[1-[[(4-Carboxyphenyl)amino]carbonyl]-4-piperidinyl]carbonyl]-4-[(2,6-dichlorobenzoyl)amino]-L-phenylalanine]	≥ 1000 nM
COc1ccc(C(=O)N2CCCC[C@H]2C(=O)N[C@@H](Cc2ccc(NC(=O)c3c(Cl)cccc3Cl)cc2)C(=O)O)cc1OC [Example 180]	≥ 1000 nM
O=C(O)c1ccc2cc(C(=O)N3CCCC[C@H]3C(=O)N[C@@H](Cc3ccc(NC(=O)c4c(Cl)cccc4Cl)cc3)C(=O)O)ccc2c1 [Example 183]	≥ 1000 nM
O=C(O)CNC(=O)N1CCCC(C(=O)N[C@@H](Cc2ccc(NC(=O)c3c(Cl)cccc3Cl)cc2)C(=O)O)C1 (stereo partly shown) [Example 202]	≥ 1000 nM
O=C(O)c1ccc(NC(=O)N2CCCC(C(=O)N[C@@H](Cc3ccc(NC(=O)c4c(Cl)cccc4Cl)cc3)C(=O)O)C2)cc1 (stereo partly shown) [Example 208]	≥ 1000 nM
O=C(O)CCC(=O)N1CCC(C(=O)N[C@@H](Cc2ccc(NC(=O)c3c(Cl)cccc3Cl)cc2)C(=O)O)CC1 [Example 209]	≥ 1000 nM
O=C(O)CC1(CC(=O)N2CCC(C(=O)N[C@@H](Cc3ccc(NC(=O)c4c(Cl)cccc4Cl)cc3)C(=O)O)CC2)CCCC1 [Example 210]	≥ 1000 nM
CC(C)(CC(=O)O)CC(=O)N1CCC(C(=O)N[C@@H](Cc2ccc(NC(=O)c3c(Cl)cccc3Cl)cc2)C(=O)O)CC1 [Example 211]	≥ 1000 nM
O=C(O)/C=C\C(=O)N1CCC(C(=O)N[C@@H](Cc2ccc(NC(=O)c3c(Cl)cccc3Cl)cc2)C(=O)O)CC1 [Example 212]	≥ 1000 nM
O=C(O)/C=C/C(=O)N1CCC(C(=O)N[C@@H](Cc2ccc(NC(=O)c3c(Cl)cccc3Cl)cc2)C(=O)O)CC1 [Example 213]	≥ 1000 nM
COCCC(=O)N1CCC(C(=O)N[C@@H](Cc2ccc(NC(=O)c3c(Cl)cccc3Cl)cc2)C(=O)O)CC1 [Example 214]	≥ 1000 nM
O=C(Nc1ccc(C[C@H](NC(=O)C2CCN(C(=O)C3CCCC(C(=O)O)C3)CC2)C(=O)O)cc1)c1c(Cl)cccc1Cl (stereo partly shown) [Example 215]	≥ 1000 nM
O=C(O)CNC(=O)N1CCC(C(=O)N[C@@H](Cc2ccc(NC(=O)c3c(Cl)cccc3Cl)cc2)C(=O)O)CC1 [Example 217]	≥ 1000 nM
COc1ccc(C(=O)N2CCC(C(=O)N[C@@H](Cc3ccc(NC(=O)c4c(Cl)cccc4Cl)cc3)C(=O)O)CC2)cc1OC [Example 218]	≥ 1000 nM
O=C(O)c1ccccc1C(=O)N1CCC(C(=O)N[C@@H](Cc2ccc(NC(=O)c3c(Cl)cccc3Cl)cc2)C(=O)O)CC1 [Example 219]	≥ 1000 nM
O=C(O)c1ccc2cc(C(=O)N3CCC(C(=O)N[C@@H](Cc4ccc(NC(=O)c5c(Cl)cccc5Cl)cc4)C(=O)O)CC3)ccc2c1 [Example 221]	≥ 1000 nM

Other lines, results leading:

IC50	Compound
≥ 1000 nM	CCOC(=O)N1CSC[C@@H]1C(=O)N[C@@H](Cc1ccc(OCc2c(Cl)cccc2Cl)cc1)C(N)=O (relative stereo) [Example 90, [S-(R*,R*)]-4-[[[1-[[4-[(2,6-Dichlorophenyl)methoxy]phenyl]methyl]-2-amino-2-oxoethyl]amino]carbonyl]-3-thiazolidinecarboxylic Acid 3-Ethyl Ester]
≥ 1000 nM	O=C(C[C@H]1CC[C@@H](C(=O)O)N1Cc1ccccc1)N[C@@H](Cc1ccc(OCc2c(Cl)cccc2Cl)cc1)C(=O)O [Example 94, (5R)-5-[2-[[(1S)-1-Carboxy-2-[4-[(2,6-dichlorophenyl)methoxy]phenyl]ethyl]amino]-2-oxoethyl]-1-(phenylmethyl)-L-proline]
≥ 1000 nM	O=C(C[C@@H]1CC[C@H](C(=O)O)N1Cc1ccccc1)N[C@@H](Cc1ccc(OCc2c(Cl)cccc2Cl)cc1)C(=O)O [Example 95, (5S)-5-[2-[[(1S)-1-Carboxy-2-[4-[(2,6-dichlorophenyl)methoxy]phenyl]ethyl]amino]-2-oxoethyl]-1-(phenylmethyl)-D-proline]
≥ 1000 nM	COC(=O)CCC1(CCC(=O)N[C@@H](Cc2ccc(NC(=O)c3c(Cl)cccc3Cl)cc2)C(=O)OC)CCC(=O)N1C (stereo partly drawn) [Example 110, 2-[3-[[(1S)-1-[[4-[(2,6-Dichlorobenzoyl)amino]phenyl]methyl]-2-methoxy-2-oxoethyl]amino]-3-oxopropyl]-1-methyl-5-oxo-2-pyrrolidinepropanoic Acid Methyl Ester]
≥ 1000 nM	COC(=O)CCC1(CCC(=O)N[C@@H](Cc2ccc(OCc3c(Cl)cccc3Cl)cc2)C(=O)OC)CCC(=O)N1 (stereo partly drawn) [Example 112, 2-[3-[[(1S)-1-[[4-[(2,6-Dichlorophenyl)methoxy]phenyl]methyl]-2-methoxy-2-oxoethyl]amino]-3-oxopropyl]-5-oxo-2-pyrrolidinepropanoic Acid Methyl Ester]
≥ 1000 nM	COC(=O)[C@H](Cc1ccc(NC(=O)c2c(Cl)cccc2Cl)cc1)NC(=O)C1CCCCN1C(=O)CCC(=O)O (stereo partly drawn) [Example 163, 2-[[[(1S)-1-[[4-[(2,6-Dichlorobenzoyl)amino]phenyl]methyl]-2-methoxy-2-oxoethyl]amino]carbonyl]-γ-oxo-1-piperidinebutanoic Acid]
≥ 1000 nM	COC(=O)[C@H](Cc1ccc(NC(=O)c2c(Cl)cccc2Cl)cc1)NC(=O)C1CCCCN1C(=O)CC1(CC(=O)O)CCCC1 (stereo partly shown) [Example 164]
≤ 250 nM	COC(=O)[C@H](Cc1ccc(NC(=O)c2c(Cl)cccc2Cl)cc1)NC(=O)C1CCCCN1C(=O)CC(C)(C)CC(=O)O (stereo partly shown) [Example 165]
≥ 1000 nM	COC(=O)[C@H](Cc1ccc(NC(=O)c2c(Cl)cccc2Cl)cc1)NC(=O)C1CCCCN1C(=O)/C=C\C(=O)O (stereo partly shown) [Example 166]
≥ 1000 nM	O=C(O)CC1(CC(=O)N2CCCCC2C(=O)N[C@@H](Cc2ccc(NC(=O)c3c(Cl)cccc3Cl)cc2)C(=O)O)CCCC1 (stereo partly shown) [Example 168]
≥ 1000 nM	CC(C)(CC(=O)O)CC(=O)N1CCCCC1C(=O)N[C@@H](Cc1ccc(NC(=O)c2c(Cl)cccc2Cl)cc1)C(=O)O (stereo partly shown) [Example 169]
≥ 1000 nM	O=C(O)/C=C\C(=O)N1CCCCC1C(=O)N[C@@H](Cc1ccc(NC(=O)c2c(Cl)cccc2Cl)cc1)C(=O)O (stereo partly shown) [Example 170]
250 to 1000 nM	O=C(O)CCC(=O)N1CCCC(C(=O)N[C@@H](Cc2ccc(NC(=O)c3c(Cl)cccc3Cl)cc2)C(=O)O)C1 (stereo partly drawn) [Example 174, 3-[[[(1S)-1-Carboxy-2-[4-[(2,6-dichlorobenzoyl)amino]phenyl]ethyl]amino]carbonyl]-γ-oxo-1-piperidinebutanoic Acid]
250 to 1000 nM	CC(=O)CCC(=O)N1CCCC[C@H]1C(=O)N[C@@H](Cc1ccc(NC(=O)c2c(Cl)cccc2Cl)cc1)C(=O)O [Example 179]
250 to 1000 nM	O=C(O)c1cccc(C(=O)N2CCCC(C(=O)N[C@@H](Cc3ccc(NC(=O)c4c(Cl)cccc4Cl)cc3)C(=O)O)C2)c1 (stereo partly shown) [Example 205]
